Reference: patent US20230330025A1, “Particle Modifiers for Multi-Drug Loaded Nanoparticles” (UNIVERSITY OF CONNECTICUT, priority 2022, published 2023)
Counter-ions that a name gives are not always drawn.

Assay: In vitro release study (dialysis method)
Assay type: physicochemical
Settings: PBS pH 5.5, 6.5, 7.4; 37 °C; 100 kD dialysis
Procedure: The release study was conducted using a dialysis method with PBS as the buffer media at pH 5.5, 6.5, and 7.4 to simulate the endosomal, tumoral, and plasma conditions, respectively. The pH was adjusted using 1 M HCl solution or 1 M NaOH solution as needed to achieve the desired media pH. Briefly, 5 mL of each formulation were placed in Spectrum Float-A-Lyzer G2 dialysis tubes (Thermo Fisher Scientific, Waltham, MA) with a molecular weight cut-off of 100 kD, which were then immersed in 50 mL of release media. The containers were incubated at 37° C. under shaking at 150 rpm for 96 hours. At 0-, 1-, 2-, 4-, 8-, 12-, 24-, 36-, 48-, 72-, and 96-hour intervals, 500 μL of the sample solution was withdrawn from the release media and replaced with an equal amount of fresh medium. The samples were analyzed using the UPLC-UV method previously described. The error bars were obtained by measuring each sample in triplicate.

- DOX passed through membrane by 24 hours: ~100%
- DOX released (passed dialysis membrane) within first 4 hours: About 80%
SMILES: COc1cccc2c1C(=O)c1c(O)c3c(c(O)c1C2=O)C[C@@](O)(C(=O)CO)C[C@@H]3O[C@H]1C[C@H](N)[C@H](O)[C@H](C)O1 [DOX solution, Doxorubicin (hydrochloride salt)]
